Source: patent US10392368B2, “Pyrazolo and triazolo bicyclic compounds as JAK kinase inhibitors” (THERAVANCE BIOPHARMA R&D IP, LLC, priority 2017, dated 2019)

Assays:
[1] = Colon and plasma mouse pharmacokinetics; assay type: in vivo; conditions: male Balb/c mice, 10 mg/kg PO; 0.5, 2 and 6 hours
Procedure: 6 male Balb/c mice were administered 10 mg/kg of compound in 1% HPMC+0.1% Tween-80 by PO administration. At 0.5, 2 and 6 hours after dose administration, animals were anesthetized, and terminal blood samples were collected by cardiac puncture, followed by collection of colon contents and colon tissue.
Blood samples were collected into K2EDTA and stored on wet ice until processed to plasma by centrifugation (12000 rpm at 4° C.). Plasma samples were transferred to cluster tubes and placed on dry ice prior to freezer storage. The colon contents from each animal were collected at each terminal blood collection time point. The colon tissues were flushed with saline and patted dry. The colon and colon content tissues were homogenized using sterile water containing 0.1% formic acid 9:1 (water:tissue, v/w). The homogenized tissues and colon contents were transferred to cluster tubes and placed on dry ice prior to freezer storage. All samples were analyzed using LC/MS/MS against analytical standards.
The composite pharmacokinetic parameters of the compounds were determined by non-compartmental analysis using Phoenix WinNonlin Version 6 (Certara, St. Louis, Mo.) and using mean values from 2 animals/time point. For plasma concentrations below the quantification limit (BQL), the lowest concentration measurable or the BLOQ (below limit of quantification) was used.
A colon to plasma ratio was determined as the ratio of the colon AUC to the plasma AUC.

[2] = tested on: IL-2 induced pSTAT5 in thymus; experiment: Systemic target engagement: murine model of IL-2 induced pSTAT5 induction in thymus; assay type: in vivo, mouse; conditions: PO, 10, 30 and 50 mg/kg
Source text: IL-2 is an important cytokine underlying the pathophysiology of gastro-intestinal diseases such as […] bowel disease (IBD; Guan and Zhang. Mediators Inflamm, 2017; 4810258). IL-2 binds to cell surface receptors activating members of the Janus family of kinases (JAK), specifically JAK3, which then phosphorylates STAT5 and subsequently activates further transcription pathways. In this model, a dose of IL-2 was delivered systemically to mice to induce the phosphorylation of STAT5 (pSTAT5) which was then measured as the endpoint.
Adult male Balb/c mice from Harlan were used in the assay. Animals were administered test compound via oral gavage (PO, 10 or 30 mg/kg for single dose studies; 10-60 mg/kg for dose response studies) on the afternoon of the day prior to study and then in the morning on the day of study. Two hours after the second PO dose administration, mice were injected intraperitoneally (i.p.) with 100 μl of an appropriate IL-2 dose (for a total of 1-5 μg/mouse depending upon IL-2 batch; R&D Systems). 90-120 minutes after IL-2 insult, thymus samples were harvested.

splenic NK cells = experiment: Immunosuppression effects in mouse splenic natural killer (NK) cells; conditions: positive control, 30 mg/kg PO, BID
Procedure: Select compounds were assessed in the mouse splenic cell model following the same treatment paradigm used in the oxazolone-induced colitis model (assay 8).
Adult male Balb/C mice from Harlan were used for the study. The test compound and a Jak3 covalent inhibitor standard 2-propen-1-one, 1-[(2S,5R)-2-methyl-5-(7H-pyrrolo[2,3-d]pyrimidin-4-ylamino)-1-piperidinyl] (30 mg/kg, BID) as a positive control, were dosed orally for three days to naïve mice. Spleens were harvested up to 4 hours post last dose and crushed immediately for cell subtype staining. Prior to fixation, fluorophore-labelled antibodies for CD19 (FITC; B cells), CD3e (PE; pan T cells) and CD49e (APC; NK cells) were incubated with splenocyte samples from each animal to allow for simultaneous, multiple subtype % analysis on the flow cytometer. The number of total spleen cells for each animal was measured by Scepter™ 2.0 Handheld Automated Cell Counter.
The absolute number of lymphocyte subtype population (e.g., splenic B, T and NK cells) was calculated from the percentage of each subtype times the total spleen cells for each animal. A one-way ANOVA, with Fisher's LSD post hoc test, was used to compare the splenic lymphocytes number of the vehicle and test compound groups. The a level was set at p<0.05. Data were presented as the mean±SEM for each group.

colon to plasma ratio (colon AUC to plasma AUC) [1]: 2.8
SMILES: C=CC(=O)N1C[C@H](Nc2ncnc3[nH]ccc23)CC[C@@H]1C [PF-06651600, 2-propen-1-one, 1-[(2S,5R)-2-methyl-5-(7H-pyrrolo[2,3-d]pyrimidin-4-ylamino)-1-piperidinyl], reference compound]
inhibition of pSTAT5 induction in the thymus [2]: significant inhibition
Splenic NK cell counts (splenic NK cells): significantly decreased
